Values of other authors as cited in publication PMC11822664, “First‐In‐Human Dose Finding Study of Venadaparib (IDX‐1197), a Potent and Selective PARP Inhibitor, in Patients With Advanced Solid Tumors” (Cancer Medicine, 2025).

Tests used:
[1] = system: PARP; conditions: olaparib phase I trial ref 22; cited from earlier work
[2] = system: patients with advanced ovarian cancer; conditions: cited from earlier work
[3] = advanced ovarian cancer with ≥ 2 prior systemic treatments ref 33

Q: With O=C(c1cc(Cc2n[nH]c(=O)c3ccccc23)ccc1F)N1CCN(C(=O)C2CC2)CC1 [olaparib] as the compound, how does the “Dose from which clinical benefit started” value [1] read?
A: Its value is ≥ 100 mg twice daily (BID).

Q: And the Anemia incidence ([2]; advanced ovarian cancer ref 33)?
A: The Anemia incidence was 46%.

Q: And the Neutropenia incidence ([2]; advanced ovarian cancer ref 33)?
A: The Neutropenia incidence was 24%.

Q: What about the Nausea incidence [2, 3] of the same compound?
A: Its Nausea incidence is “approximately 76%”.

Q: What about the Vomiting incidence [2, 3] of the same compound?
A: Its Vomiting incidence is roughly 40%.
